From US20230149400A1, “METHODS AND COMPOSITIONSFOR TREATING VIRAL INFECTIONS” (ACLARIS THERAPEUTICS, INC., priority 2020, published 2023)
Where two headings read alike, the source gives them in different places.

Experiments:
[1] = test system: lipopolysaccharide (TLR4)-stimulated cytokines and chemokines; assay: Ex vivo LPS (TLR4)-stimulated cytokine/chemokine production in whole blood of subjects given oral ATI-450; parameters: species or system human; settings: for inhibition at 50 mg: Homo sapiens, po, both cohorts (100 mg once daily; 50 mg twice daily), compared to placebo
Method: Data were collected following stimulation by a lipopolysaccharide (LPS) at a single time point (5 hours) in each isolated ex vivo human whole blood sample collected. […]. Cytokines evaluated include: IL-1b, IL-1RA, IL-2, IL-7, IL-8, IL-9, IL-10, basic FGF, GCSF, GMCSF, IFNγ, IP-10, MCP-1, MIP-1α, MIP-1β, PDGF, TNFα, and VEGF.

[2] = test subjects
[3] = test system: lung polymorphonuclear neutrophils (PMN); assay: Rat model of pulmonary inflammation (LPS aerosol), lung lavage PMN count; settings: oral 1 mg/kg or 10 mg/kg, 4 hours after LPS exposure, versus vehicle
Method: One hour after administration, animals were placed in an aerosol chamber containing 60 μg/mL lipopolysaccharide (LPS) for 40 minutes and then removed to room air. Four hours after LPS exposure, lungs of the animals were lavaged with cold D-PBS/EDTA solution and the total number of polymorphonuclear neutrophils (PMN) in the solution were counted as an indicator of the inflammatory response.

[4] = Cohort 1 (SAD), 100 mg ATI-450 once daily
[5] = Cohort 2 (MAD), 50 mg ATI-450 twice daily

Cc1cnc(-c2ccnc(C(C)(C)O)n2)cc1-n1c(C)cc(OCc2ncc(F)cc2F)c(Cl)c1=O (single isomer, unassigned) [ATI-450, 3-chloro-4-((3,5-difluoropyridin-2-yl)methoxy)-2′-(2-(2-hydroxypropan-2-yl)pyrimidin-4-yl)-5′,6-dimethyl-2H-[1,4′-bipyridin]-2-one]
LPS-stimulated IL-6, IL-8, MIP-1β, G-CSF, IL-1RA, IP-10, and MCP-1 levels ([1]; 50 mg ATI-450 twice daily): reduction
LPS-stimulated IL-6, IL-8, and MIP-1β release ([1]; 100 mg ATI-450 once daily): reduction
GCSF Not Stimulated [1, 4]: 25.01 pg/mL
GCSF Stimulated [1, 4]: 232.34 pg/mL
GMCSF Not Stimulated [1, 4]: 0.46 pg/mL
GMCSF Stimulated [1, 4]: 25.12 pg/mL
IFNγ Not Stimulated [1, 4]: 12.54 pg/mL
IFNγ Stimulated [1, 4]: 57.72 pg/mL
IL-1RA Not Stimulated [1, 4]: 974.42 pg/mL
IL-1RA Stimulated [1, 4]: 7169.95 pg/mL
IL-1β Not Stimulated [1, 4]: 1.86 pg/mL
IL-1β Stimulated [1, 4]: 776.88 pg/mL
IL-2 Not Stimulated [1, 4]: 0.65 pg/mL
IL-2 Stimulated [1, 4]: 30.06 pg/mL
IL-6 Not Stimulated [1, 4]: 15.28 pg/mL
IL-6 Stimulated [1, 4]: 8700.41 pg/mL
IL-7 Not Stimulated [1, 4]: 8.79 pg/mL
IL-7 Stimulated [1, 4]: 8.04 pg/mL
IL-8 Not Stimulated [1, 4]: 1564.00 pg/mL
IL-8 Stimulated [1, 4]: 24421.33 pg/mL
IL-9 Not Stimulated [1, 4]: 0.00 pg/mL
IL-9 Stimulated [1, 4]: 0.00 pg/mL
IL-10 Not Stimulated [1, 4]: 22.57 pg/mL
IL-10 Stimulated [1, 4]: 752.46 pg/mL
IP-10 Not Stimulated [1, 4]: 288.07 pg/mL
IP-10 Stimulated [1, 4]: 1487.58 pg/mL
MCP-1 Not Stimulated [1, 4]: 1026.37 pg/mL
MCP-1 Stimulated [1, 4]: 1215.21 pg/mL
MIP-1α Not Stimulated [1, 4]: 105.22 pg/mL
MIP-1α Stimulated [1, 4]: 32722.63 pg/mL
MIP-1β Not Stimulated [1, 4]: 504.74 pg/mL
MIP-1β Stimulated [1, 4]: 49549.56 pg/mL
TNFα Not Stimulated [1, 4]: 8.57 pg/mL
TNFα Stimulated [1, 4]: 5270.06 pg/mL
VEGF Not Stimulated [1, 4]: 186.34 pg/mL
VEGF Stimulated [1, 4]: 231.92 pg/mL
bFGF Not Stimulated [1, 4]: 29.69 pg/mL
bFGF Stimulated [1, 4]: 28.63 pg/mL
inhibition of LPS-stimulated IL-1RA ([1]; Cohort 1 and Cohort 2): about 30%
inhibition of LPS-stimulated IL-10 ([1]; Cohort 1 and Cohort 2): about 30%
GCSF Not Stimulated [1, 5]: 16.33 pg/mL
GCSF Stimulated [1, 5]: 292.44 pg/mL
GMCSF Not Stimulated [1, 5]: 0.21 pg/mL
GMCSF Stimulated [1, 5]: 19.15 pg/mL
IFNγ Not Stimulated [1, 5]: 33.45 pg/mL
IFNγ Stimulated [1, 5]: 57.81 pg/mL
IL-1RA Not Stimulated [1, 5]: 893.81 pg/mL
IL-1RA Stimulated [1, 5]: 13830.24 pg/mL
IL-1β Not Stimulated [1, 5]: 2.25 pg/mL
IL-1β Stimulated [1, 5]: 381.38 pg/mL
IL-2 Not Stimulated [1, 5]: 2.86 pg/mL
IL-2 Stimulated [1, 5]: 14.18 pg/mL
IL-6 Not Stimulated [1, 5]: 5.70 pg/mL
IL-6 Stimulated [1, 5]: 9359.59 pg/mL
IL-7 Not Stimulated [1, 5]: 7.40 pg/mL
IL-7 Stimulated [1, 5]: 6.87 pg/mL
IL-8 Stimulated [1, 5]: 30259.47 pg/mL
IL-9 Not Stimulated [1, 5]: 3.10 pg/mL
IL-9 Stimulated [1, 5]: 2.77 pg/mL
IL-10 Not Stimulated [1, 5]: 2.05 pg/mL
IL-10 Stimulated [1, 5]: 108.90 pg/mL
IP-10 Not Stimulated [1, 5]: 474.58 pg/mL
IP-10 Stimulated [1, 5]: 1513.02 pg/mL
MCP-1 Not Stimulated [1, 5]: 728.09 pg/mL
MCP-1 Stimulated [1, 5]: 1124.80 pg/mL
MIP-1α Not Stimulated [1, 5]: 193.51 pg/mL
MIP-1α Stimulated [1, 5]: 38207.05 pg/mL
MIP-1β Not Stimulated [1, 5]: 806.79 pg/mL
MIP-1β Stimulated [1, 5]: 89906.73 pg/mL
TNFα Not Stimulated [1, 5]: 13.44 pg/mL
TNFα Stimulated [1, 5]: 6402.98 pg/mL
VEGF Not Stimulated [1, 5]: 202.39 pg/mL
VEGF Stimulated [1, 5]: 191.77 pg/mL
bFGF Not Stimulated [1, 5]: 25.04 pg/mL
bFGF Stimulated [1, 5]: 24.50 pg/mL
inhibition at 50 mg ([1]; read-out: inhibition of LPS-stimulated GM-CSF): ≥ 70%
inhibition at 50 mg ([1]; read-out: inhibition of LPS-stimulated IFNγ): ≥ 70%
inhibition at 50 mg ([1]; read-out: inhibition of LPS-stimulated IL-2): ≥ 70%
inhibition at 50 mg ([1]; read-out: inhibition of LPS-stimulated MIP-1α): ≥ 70%
tolerability [2]: well tolerated
total lung PMNs [3]: significantly reduced
